Assay results published in patent US5624923A, “Tricyclic diazepine vasopressin antagonists and oxytocin antagonists” (priority 1995, dated 1997).
Values joined by “and” are separate entries in the source; they are usually repeats but may differ in a detail not shown here. Identical values can stand only once.

Assays:
Vasopressin V1 = Vasopressin V1 Antagonist Activity in Conscious Rats (vasopressin vasopressor response); format: in vivo, rat; design: Average Change: unit not given here; details: for % Inhibition / Average Change: SHR
Procedure, shortened: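 Conscious rats are restrained supine, and under local 2% procaine a PE 10/20 cannula is passed through the ventral caudal tail artery into the lower abdominal aorta. The caudal vein is cannulated for intravenous dosing. Blood pressure is recorded with a Statham P23Db transducer, and vasopressin injections are repeated after compound dosing. Percent antagonism is calculated against the pre-drug vasopressor response taken as 100%.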

oxytocin receptors = molecular target: T1, oxytocin receptors (Rattus norvegicus, UniProt P70536); assay: Oxytocin Receptor Binding; details: for IC50: 1.0 nM [3H]oxytocin; for inhibition at 10 µM / inhibition at 1.25 µM: [3H]oxytocin
T1 construct: The uteri are dissected out, cleaned of fat and connective tissues; from tissue; host or cells: uterus of DES-treated female Sprague-Dawley rats
T1 sequence (P70536 1-388): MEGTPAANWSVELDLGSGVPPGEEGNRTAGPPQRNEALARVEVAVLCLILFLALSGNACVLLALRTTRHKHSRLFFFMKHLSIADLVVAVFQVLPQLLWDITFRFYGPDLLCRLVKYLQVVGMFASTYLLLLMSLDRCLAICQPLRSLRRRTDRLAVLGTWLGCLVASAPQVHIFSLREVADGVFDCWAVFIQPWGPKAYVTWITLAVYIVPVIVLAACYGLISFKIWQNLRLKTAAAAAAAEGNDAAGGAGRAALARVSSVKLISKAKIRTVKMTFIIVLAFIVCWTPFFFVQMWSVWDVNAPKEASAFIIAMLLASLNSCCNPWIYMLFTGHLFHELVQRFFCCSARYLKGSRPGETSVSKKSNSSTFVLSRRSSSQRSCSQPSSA
Procedure, shortened: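 IC50 is the concentration displacing 50% of 1.0 nM [3H]OT, incubated 60 min at 22 °C in pH 7.4 Tris/MgCl2 buffer plus protease inhibitors, then filtered. Receptor source: uterine membranes from rats given 0.3 mg/kg DES i.m. 18 h earlier. 1.0 uM cold OT defined non-specific binding.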

[1] = molecular target: T2, Rat Kidney Medullary V2 Receptors (Rattus norvegicus, UniProt Q00788); assay: Binding Assay to Rat Kidney Medullary V2 Receptors; details: rat kidney medulla membranes; read-out: V2 IC50
T2 construct: Medullary tissues from rat kidneys are dissected out; from tissue; host or cells: rat kidney medulla membranes
Procedure, shortened: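 IC50 derived from competition curves; bound tritium counted by liquid scintillation after filtration. Rat medullary kidney membranes (Tris-HCl pH 7.4, BSA, PMSF) were incubated 120 min to equilibrium with radioligand and test compound (added in 50% DMSO). Nonspecific binding: 1.0 μM unlabeled ligand.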

[2] = 3 mg/kg i.v., VAS 0.01 i.u./kg, 30 min
[3] = 3 mg/kg i.v., VAS 0.01 i.u./kg, 60 min
[4] = 3 mg/kg i.v., VAS 0.01 i.u./kg, 90 min
[5] = 3 mg/kg i.v., VAS 0.01 i.u./kg, 120 min
[6] = 3 mg/kg i.v., VAS 0.01 i.u./kg, 180 min
[7] = 3 mg/kg i.v., VAS 0.01 i.u./kg, 240 min
[8] = 3 mg/kg i.v., VAS 0.01 i.u./kg, 300 min
[9] = 3 mg/kg i.v., VAS 0.02 i.u./kg, 30 min
[10] = 3 mg/kg i.v., VAS 0.02 i.u./kg, 60 min
[11] = 3 mg/kg i.v., VAS 0.02 i.u./kg, 90 min
[12] = 3 mg/kg i.v., VAS 0.02 i.u./kg, 120 min
[13] = 3 mg/kg i.v., VAS 0.02 i.u./kg, 300 min
[14] = 10 mg/kg p.o., VAS 0.01 i.u./kg, 30 min
[15] = 10 mg/kg p.o., VAS 0.01 i.u./kg, 60 min
[16] = 10 mg/kg p.o., VAS 0.01 i.u./kg, 120 min
[17] = 10 mg/kg p.o., VAS 0.01 i.u./kg, 300 min
[18] = 10 mg/kg p.o., VAS 0.02 i.u./kg, 30 min
[19] = 10 mg/kg p.o., VAS 0.02 i.u./kg, 60 min
[20] = 10 mg/kg p.o., VAS 0.02 i.u./kg, 300 min
[21] = 30 mg/kg p.o., VAS 0.01 i.u./kg, 30 min
[22] = 30 mg/kg p.o., VAS 0.01 i.u./kg, 60 min
[23] = 30 mg/kg p.o., VAS 0.01 i.u./kg, 90 min
[24] = 30 mg/kg p.o., VAS 0.01 i.u./kg, 120 min
[25] = 30 mg/kg p.o., VAS 0.01 i.u./kg, 180 min
[26] = 30 mg/kg p.o., VAS 0.01 i.u./kg, 240 min
[27] = 30 mg/kg p.o., VAS 0.02 i.u./kg, 30 min
[28] = 30 mg/kg p.o., VAS 0.02 i.u./kg, 60 min
[29] = 30 mg/kg p.o., VAS 0.02 i.u./kg, 90 min
[30] = 30 mg/kg p.o., VAS 0.02 i.u./kg, 120 min
[31] = 30 mg/kg p.o., VAS 0.02 i.u./kg, 180 min
[32] = 30 mg/kg p.o., VAS 0.02 i.u./kg, 240 min

T2 sequence (Q00788 whole entry): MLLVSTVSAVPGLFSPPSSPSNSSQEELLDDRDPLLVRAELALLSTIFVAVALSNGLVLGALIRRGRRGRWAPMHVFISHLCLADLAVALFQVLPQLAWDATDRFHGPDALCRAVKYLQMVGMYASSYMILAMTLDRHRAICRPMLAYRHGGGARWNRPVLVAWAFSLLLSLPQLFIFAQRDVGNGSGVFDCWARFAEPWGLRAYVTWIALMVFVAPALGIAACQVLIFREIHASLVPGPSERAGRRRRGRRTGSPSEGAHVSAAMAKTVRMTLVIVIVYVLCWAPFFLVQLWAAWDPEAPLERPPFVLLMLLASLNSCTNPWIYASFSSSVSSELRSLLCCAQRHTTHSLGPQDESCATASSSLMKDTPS

## O=C(Nc1ccc(C(=O)N2Cc3cccn3Cc3ccccc32)cc1)C(O)c1ccccc1 (racemic) [Example 588, (±) α-Hydroxy-N-[4-(5H-pyrrolo[2,1c][1,4]benzodiazepin-10(11H)-ylcarbonyl)phenyl]benzeneacetamide]
Vasopressin V1; 10 mg/kg i.v.
  Max. % Inhibition: 65%
  Time (of max. % inhibition): 90 min
Vasopressin V1; 30 mg/kg p.o.
  Max. % Inhibition: 80%
  Time (of max. % inhibition): 120 min
Oxytocin receptors
  IC50: 2000 nM
  inhibition at 10 µM: 90%
[1]
  IC50: 12 nM

## Cc1ccccc1C(=O)Nc1ccc(C(=O)N2Cc3cccn3Cc3ccccc32)cc1 [Example 3, 2-Methyl-N-[4-(5H-pyrrolo[2,1-c][1,4]-benzodiazepin-10(11H)-ylcarbonyl)phenyl]benzamide]
Vasopressin V1; [2]
  % Inhibition: 70% and 69%
  Average Change: 15
Vasopressin V1; [3]
  % Inhibition: 75% and 57%
  Average Change: 12.5 and 21
Vasopressin V1; [4]
  % Inhibition: 65% and 76%
  Average Change: 17.5 and 12
Vasopressin V1; [5]
  % Inhibition: 60% and 58%
  Average Change: 20 and 20.5
Vasopressin V1; [6]
  % Inhibition: 40% and 57%
  Average Change: 30 and 21
Vasopressin V1; [7]
  % Inhibition: 20% and 35%
  Average Change: 40 and 32
Vasopressin V1; [8]
  % Inhibition: 61%
  Average Change: 19
Vasopressin V1; [9]
  % Inhibition: 57%
  Average Change: 23.5 and 22
Vasopressin V1; [10]
  % Inhibition: 68% and 44%
  Average Change: 17.5 and 29
Vasopressin V1; [11]
  % Inhibition: 73% and 46%
  Average Change: 15 and 28
Vasopressin V1; [12]
  % Inhibition: 41% and 64%
  Average Change: 32.5 and 18.5
Vasopressin V1; 3 mg/kg i.v., VAS 0.02 i.u./kg, 180 min
  Average Change: 55 and 28.5
Vasopressin V1; 3 mg/kg i.v., VAS 0.02 i.u./kg, 240 min
  Average Change: 52.5 and 27.5
Vasopressin V1; [13]
  % Inhibition: 41%
  Average Change: 30.5
Vasopressin V1; [14]
  % Inhibition: 78% and 71% and 73%
  Average Change: 12.5 and 10 and 11
Vasopressin V1; [15]
  % Inhibition: 70% and 71%
  Average Change: 17.5 and 10.5 and 11.5
Vasopressin V1; 10 mg/kg p.o., VAS 0.01 i.u./kg, 90 min
  % Inhibition: 81% and 70%
Vasopressin V1; [16]
  % Inhibition: 74% and 59% and 69%
  Average Change: 15 and 14.5 and 12.5
Vasopressin V1; 10 mg/kg p.o., VAS 0.01 i.u./kg, 180 min
  % Inhibition: 65% and 77% and 61%
Vasopressin V1; 10 mg/kg p.o., VAS 0.01 i.u./kg, 240 min
  % Inhibition: 61% and 76% and 51%
Vasopressin V1; [17]
  % Inhibition: 59%
  Average Change: 16.5
Vasopressin V1; [18]
  % Inhibition: 65% and 66% and 70%
  Average Change: 17.5 and 18.5 and 16
Vasopressin V1; [19]
  % Inhibition: 55% and 66% and 58%
  Average Change: 22.5 and 18.5
Vasopressin V1; [20]
  % Inhibition: 56%
  Average Change: 24
Vasopressin V1; [21]
  % Inhibition: 72%
  Average Change: 15
Vasopressin V1; [22]
  % Inhibition: 57%
  Average Change: 22.5
Vasopressin V1; [23]
  % Inhibition: 81%
  Average Change: 10
Vasopressin V1; [24]
  % Inhibition: 81%
  Average Change: 10
Vasopressin V1; [25]
  % Inhibition: 81%
  Average Change: 10
Vasopressin V1; [26]
  % Inhibition: 91%
  Average Change: 5
Vasopressin V1; [27]
  % Inhibition: 62%
  Average Change: 20
Vasopressin V1; [28]
  % Inhibition: 57%
  Average Change: 22.5
Vasopressin V1; [29]
  % Inhibition: 62%
  Average Change: 20
Vasopressin V1; [30]
  % Inhibition: 76%
  Average Change: 12.5
Vasopressin V1; [31]
  % Inhibition: 67%
  Average Change: 17.5
Vasopressin V1; [32]
  % Inhibition: 81%
  Average Change: 10
Oxytocin receptors
  IC50: 360 nM
  inhibition at 10 µM: 90%
[1]
  IC50: 4 nM

## O=C(Nc1ccc(C(=O)N2Cc3cccn3Cc3sccc32)cc1)c1ccc(Cl)cc1Cl [Example 274, N-(4-(5H-pyrrolo[1,2-a]thieno-[3,2-e][1,4]diazepin-4(10H)-ylcarbonyl)phenyl]-2,4-dichloro-benzamide]
Vasopressin V1; 10 mg/kg i.v.
  Max. % Inhibition: 59%
  Time (of max. % inhibition): 300 min
Oxytocin receptors
  IC50: 1000 nM
  inhibition at 10 µM: 95%

## COc1cc(C(=O)N2Cc3cccn3Cc3ccccc32)ccc1NC(=O)c1ccccc1C [Example 477, N-[4-(5H-pyrrolo[2,1-c][1,4]benzodiazepin-10(11H)-ylcarbonyl)-2-methoxy-phenyl]-2-methylbenzamide]
Vasopressin V1; 10 mg/kg i.v.
  Max. % Inhibition: 88%
  Time (of max. % inhibition): 180 min
Vasopressin V1; 30 mg/kg p.o.
  Max. % Inhibition: 82%
  Time (of max. % inhibition): 30 min
Oxytocin receptors
  IC50: 29 nM
  inhibition at 1.25 µM: 97%

## COc1cc(C(=O)N2Cc3cccn3Cc3ccccc32)ccc1NC(=O)c1ccc(Cl)cc1Cl [Example 478, N-[4-(5H-pyrrolo[2,1-c][1,4]benzodiazepin-10(11H)-ylcarbonyl)-2-methoxy-phenyl]-2,4-dichlorobenzamide]
Vasopressin V1; 10 mg/kg i.v.
  Max. % Inhibition: 76%
  Time (of max. % inhibition): 120 min
Oxytocin receptors
  IC50: 40 nM
  inhibition at 1.25 µM: 97%

## O=C(Nc1ccc(C(=O)N2Cc3cccn3Cc3ccccc32)cc1)c1cc([N+](=O)[O-])ccc1Cl [Example 480, N-[4-(5H-pyrrolo[2,1-c][1,4]benzodiazepin-10(11H)-ylcarbonyl)phenyl]-2-chloro-5-nitrobenzamide]
Vasopressin V1; 10 mg/kg i.v.
  Max. % Inhibition: 29%
  Time (of max. % inhibition): 300 min
Oxytocin receptors
  IC50: 150 nM
  inhibition at 10 µM: 98%

## Cc1cccc(C(=O)Nc2ccc(C(=O)N3Cc4cccn4Cc4ccccc43)c(Cl)c2)c1C [Example 525, N-[4-(5H-pyrrolo[2,1-c][1,4]benzodiazepin-10(11H)-ylcarbonyl]-3-chlorophenyl]-2,3-dimethylbenzamide]
Vasopressin V1; 30 mg/kg i.v.
  Max. % Inhibition: 70%
  Time (of max. % inhibition): 60 min
Oxytocin receptors
  IC50: 280 nM
  inhibition at 10 µM: 98%

## O=C(Nc1ccc(C(=O)N2Cc3cccn3Cc3ccccc32)c(Cl)c1)c1ccc(F)cc1Cl [Example 527, N-[4-(5H-pyrrolo[2,1-c][1,4]benzodiazepin-10(11H)-ylcarbonyl]-3-chlorophenyl]-4-fluoro-2-chlorobenzamide]
Vasopressin V1; 30 mg/kg i.v.
  Max. % Inhibition: 85%
  Time (of max. % inhibition): 180 min
Oxytocin receptors
  IC50: 450 nM
  inhibition at 10 µM: 92%

## O=C(Nc1ccc(C(=O)N2Cc3cccn3Cc3ccccc32)c(Cl)c1)c1ccccc1C(F)(F)F [Example 528, N-[4-(5H-pyrrolo[2,1-c][1,4]benzodiazepin-10(11H)-ylcarbonyl]-3-chlorophenyl]-2-(trifluoromethyl)benzamide]
Vasopressin V1; 30 mg/kg i.v.
  Max. % Inhibition: 66%
  Time (of max. % inhibition): 300 min
Oxytocin receptors
  IC50: 1170 nM
  inhibition at 10 µM: 90%
